Results: PubChem BioAssay AID2060902 (Molecular Pharmacology Branch, DTP, NCI, 2025)

Test system: 485368-065-R3-J5-PDC spheroids with HUVEC/MSC, viability
Assay: Anticancer human tumor 485368-065-R3-J5-PDC patient-derived pancreatic carcinoma cell line growth inhibition [RAS]
Conditions: for IC50: curve of first compound; for viability, T/C: stronger effect = lower value
Excerpt: RAS pathway inhibitors in Combinations in Complex Spheroids
A high-throughput screen of multi-cell type tumor spheroids was designed to identify active combinations of RAS pathway inhibitors and targeted small molecules. Complex spheroids include a stromal component modeled by human endothelial cells (HUVEC) and fibroblasts modeled by human mesenchymal stem cells (MSCs). The concentration ranges selected for each drug and investigational agent were based upon clinically achievable concentrations if the clinical Cmax of the agent was known.
Compounds. The drugs and investigational agents: abemaciclib (NSC768073), cobimetinib (NSC768068), divarasib (GDC6063, NSC841802), docetaxel (NSC628503), GDC-1971 (RLY-1971, NSC841576), gemcitabine (NSC613327), inavolisib (NSC800729), ipatasertib (NSC767898), KB-0742 (NSC834161), MRTX-1133 (NSC836407), osimertinib (NSC779217), RMC-4630 (NSC839698), RMC-6236 (NSC851965), RMC-6291 (NSC852671), Ro-3306 (NSC812927), sapanisertib (NSC764658), SN-38 (NSC673596), staurosporine (NSC755774), SY5609 (NSC837396), and tovorafenib (DAY101, NSC766906), were obtained from the National Cancer Institute (NCI) Developmental Therapeutics Program Chemical Repository. The FDA-approved anticancer drug set is available from the NCI Developmental Therapeutics Program. […] The stock solutions were prepared in dimethyl sulfoxide (DMSO, Sigma-Aldrich, St. Louis, MO, cat. D2650) at 800-fold the tested concentration and stored at -70 degrees C prior to their use. All drugs and investigational agents were tested over a range starting from a high concentration at or near the clinical Cmax and decreasing in half-log increments. If the clinical Cmax for an agent had not been determined, the highest concentration tested was 10 microM.
Cell Culture. All cells were maintained in an incubator at 37 degrees C and 5% CO2 with 95% humidity. The PDC lines were cultured according to standard operating procedures established by the NCI PDMR. All PDCs were thawed and cultured in Matrigel-coated flasks prepared with a working solution of 1X Ham's F-12 nutrient mix, without supplementation (Invitrogen, Waltham, MA, cat. 11765054), 100 U/mL penicillin-streptomycin (Invitrogen, cat. 15140122), and 2.5% Matrigel (Corning Inc., Corning, NY, cat. 354248) for the first three passages. The 362531-283-R-J2-PDC and 782815-120-R-J1-PDC lines were cultured in 6C/Colon 1B media, which includes advanced DMEM/F-12 (Thermo Fisher Scientific, cat. 12634028), 10 mM HEPES (Thermo Fisher Scientific, cat. 15630080), 1X GlutaMAX supplement (Thermo Fisher Scientific, cat. 35050061), 0.1 mg/mL primocin (InvivoGen, San Diego, CA, cat. ant-pm-2), 10% defined fetal bovine serum, heat inactivated (HyClone Laboratories Inc., Logan, UT, cat. SH30070.03HI), 50% L-WRN conditioned media (ATCC, cat. CRL-3276), 1.25 mM N-Acetyl-L-cysteine (Sigma-Aldrich, cat. A9165), 10 mM nicotinamide (Sigma-Aldrich, cat. N0636), 1X B-27 supplement (Thermo Fisher Scientific, cat. 17504044), 1X N-2 supplement (Thermo Fisher Scientific, cat. 17502048), 50 ng/mL human EGF (Thermo Fisher Scientific, cat. PHG0311), and 10 microM Y-27632 dihydrochloride (Tocris Bioscience, cat. 1254). The K12877-001-R-J1-PDC line was cultured in 6I media, which includes all 6C/Colon 1B media plus 10 ng/mL human FGF-10 (PeproTech, cat. 100-26), 1 ng/mL human FGF-2 (PeproTech, cat. 100-18B), 1 µM prostaglandin E2 (Tocris Bioscience, cat. 2296), […] hydrocortisone (Sigma-Aldrich, cat. H4001), and […] bovine insulin (Sigma-Aldrich, cat. I6634). The K86415-001-R-J1-PDC line was cultured in 6D media, which includes all 6C/Colon 1B media components minus the L-WRN conditioned media. The 485176-168-R4-J1-PDC was cultured in PANC media, which includes all 6C/Colon 1B media plus 100 ng/mL human FGF-10 (PeproTech, cat. 100-26), 500 nM SB-431542 (Selleckchem, cat. S1067), and 10 nM gastrin (Tocris Bioscience, cat. 3006). […]

[1] = second compound 0.0316 µM, first compound 0.0316 µM
[2] = second compound 0.0316 µM, first compound 0.1 µM
[3] = second compound 0.1 µM, first compound 0.0316 µM
[4] = second compound 0.1 µM, first compound 0.1 µM
[5] = second compound 0.316 µM, first compound 0.0316 µM
[6] = second compound 0.316 µM, first compound 0.1 µM
[7] = second compound 1 µM, first compound 0.0316 µM
[8] = second compound 1 µM, first compound 0.1 µM
[9] = second compound 3.16 µM, first compound 0.0316 µM
[10] = second compound 3.16 µM, first compound 0.1 µM
[11] = second compound 10 µM, first compound 0.0316 µM
[12] = second compound 10 µM, first compound 0.1 µM
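Also: spheroids exposed to agents for seven days before readout.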

## CC(C)n1nc(-c2ccc3oc(N)nc3c2)c2c(N)ncnc21 + C#Cc1c(F)ccc2cc(O)cc(-c3ncc4c(N5CC6CCC(C5)N6)nc(OCC56CCCN5CC(F)C6)nc4c3F)c12
Second compound 0.0316 µM
  IC50: 0.0192 µM
Second compound 0.1 µM
  IC50: 0.0186 µM
Second compound 0.316 µM
  IC50: 0.0168 µM
Second compound 1 µM
  IC50: 0.0173 µM
Second compound 3.16 µM
  IC50: 0.0115 µM
Second compound 10 µM
  IC50: < 0.000316 µM
Second compound 0.0316 µM, first compound 0.000316 µM
  viability, T/C: 96.7%
Second compound 0.0316 µM, first compound 0.001 µM
  viability, T/C: 97%
Second compound 0.0316 µM, first compound 0.00316 µM
  viability, T/C: 76.4%
Second compound 0.0316 µM, first compound 0.01 µM
  viability, T/C: 65.5%
[1]
  viability, T/C: 39.3%
[2]
  viability, T/C: 18.7%
Second compound 0.1 µM, first compound 0.000316 µM
  viability, T/C: 97.3%
Second compound 0.1 µM, first compound 0.001 µM
  viability, T/C: 90.6%
Second compound 0.1 µM, first compound 0.00316 µM
  viability, T/C: 88.9%
Second compound 0.1 µM, first compound 0.01 µM
  viability, T/C: 65.7%
[3]
  viability, T/C: 36.4%
[4]
  viability, T/C: 18.7%
Second compound 0.316 µM, first compound 0.000316 µM
  viability, T/C: 99.8%
Second compound 0.316 µM, first compound 0.001 µM
  viability, T/C: 99.4%
Second compound 0.316 µM, first compound 0.00316 µM
  viability, T/C: 83.6%
Second compound 0.316 µM, first compound 0.01 µM
  viability, T/C: 61.8%
[5]
  viability, T/C: 36.1%
[6]
  viability, T/C: 18.7%
Second compound 1 µM, first compound 0.000316 µM
  viability, T/C: 101%
Second compound 1 µM, first compound 0.001 µM
  viability, T/C: 96.8%
Second compound 1 µM, first compound 0.00316 µM
  viability, T/C: 82.8%
Second compound 1 µM, first compound 0.01 µM
  viability, T/C: 63.6%
[7]
  viability, T/C: 35.7%
[8]
  viability, T/C: 17.8%
Second compound 3.16 µM, first compound 0.000316 µM
  viability, T/C: 71.3%
Second compound 3.16 µM, first compound 0.001 µM
  viability, T/C: 76.5%
Second compound 3.16 µM, first compound 0.00316 µM
  viability, T/C: 67.2%
Second compound 3.16 µM, first compound 0.01 µM
  viability, T/C: 52.9%
[9]
  viability, T/C: 28.9%
[10]
  viability, T/C: 14.8%
Second compound 10 µM, first compound 0.000316 µM
  viability, T/C: 47.3%
Second compound 10 µM, first compound 0.001 µM
  viability, T/C: 36%
Second compound 10 µM, first compound 0.00316 µM
  viability, T/C: 32.2%
Second compound 10 µM, first compound 0.01 µM
  viability, T/C: 31.1%
[11]
  viability, T/C: 18.1%
[12]
  viability, T/C: 13.1%

## C[C@@H](NC(=O)c1ncnc(N)c1Cl)c1ncc(C(=O)Nc2cc(C(F)(F)F)c(Cl)cn2)s1 + C#Cc1c(F)ccc2cc(O)cc(-c3ncc4c(N5CC6CCC(C5)N6)nc(OCC56CCCN5CC(F)C6)nc4c3F)c12
Second compound 0.0316 µM
  IC50: > 10 µM
Second compound 0.1 µM
  IC50: > 10 µM
Second compound 0.316 µM
  IC50: > 10 µM
Second compound 1 µM
  IC50: > 10 µM
Second compound 3.16 µM
  IC50: > 10 µM
Second compound 10 µM
  IC50: 0.528 µM
[1]
  viability, T/C: 103%
[2]
  viability, T/C: 105%
Second compound 0.0316 µM, first compound 0.316 µM
  viability, T/C: 114%
Second compound 0.0316 µM, first compound 1 µM
  viability, T/C: 114%
Second compound 0.0316 µM, first compound 3.16 µM
  viability, T/C: 98%
Second compound 0.0316 µM, first compound 10 µM
  viability, T/C: 69.7%
[3]
  viability, T/C: 111%
[4]
  viability, T/C: 115%
Second compound 0.1 µM, first compound 0.316 µM
  viability, T/C: 113%
Second compound 0.1 µM, first compound 1 µM
  viability, T/C: 113%
Second compound 0.1 µM, first compound 3.16 µM
  viability, T/C: 96.5%
Second compound 0.1 µM, first compound 10 µM
  viability, T/C: 57.9%
[5]
  viability, T/C: 101%
[6]
  viability, T/C: 104%
Second compound 0.316 µM, first compound 0.316 µM
  viability, T/C: 105%
Second compound 0.316 µM, first compound 1 µM
  viability, T/C: 100%
Second compound 0.316 µM, first compound 3.16 µM
  viability, T/C: 93.2%
Second compound 0.316 µM, first compound 10 µM
  viability, T/C: 75.2%
[7]
  viability, T/C: 109%
[8]
  viability, T/C: 106%
Second compound 1 µM, first compound 0.316 µM
  viability, T/C: 104%
Second compound 1 µM, first compound 1 µM
  viability, T/C: 106%
Second compound 1 µM, first compound 3.16 µM
  viability, T/C: 96%
Second compound 1 µM, first compound 10 µM
  viability, T/C: 69.9%
[9]
  viability, T/C: 97.6%
[10]
  viability, T/C: 98.6%
Second compound 3.16 µM, first compound 0.316 µM
  viability, T/C: 94.5%
Second compound 3.16 µM, first compound 1 µM
  viability, T/C: 93.3%
Second compound 3.16 µM, first compound 3.16 µM
  viability, T/C: 89.1%
Second compound 3.16 µM, first compound 10 µM
  viability, T/C: 62%
[11]
  viability, T/C: 53.5%
[12]
  viability, T/C: 50.5%
Second compound 10 µM, first compound 0.316 µM
  viability, T/C: 50.3%
Second compound 10 µM, first compound 1 µM
  viability, T/C: 46%
Second compound 10 µM, first compound 3.16 µM
  viability, T/C: 52.6%
Second compound 10 µM, first compound 10 µM
  viability, T/C: 46.9%
